Values of other authors in article PMC7515950, “Physiologically based pharmacokinetic modeling to assess metabolic drug–drug interaction risks and inform the drug label for fedratinib” (Cancer Chemotherapy and Pharmacology, 2020).
Where two headings read alike, the source gives them in different places.

Legend:
OATP1B1 = target: T1, OATP1B1 (Homo sapiens, UniProt Q9Y6L6); details: read-out: Km of probe substrate, OATP1B1; from literature; ref [14]; cited from earlier work
T1 sequence (Q9Y6L6 1-691): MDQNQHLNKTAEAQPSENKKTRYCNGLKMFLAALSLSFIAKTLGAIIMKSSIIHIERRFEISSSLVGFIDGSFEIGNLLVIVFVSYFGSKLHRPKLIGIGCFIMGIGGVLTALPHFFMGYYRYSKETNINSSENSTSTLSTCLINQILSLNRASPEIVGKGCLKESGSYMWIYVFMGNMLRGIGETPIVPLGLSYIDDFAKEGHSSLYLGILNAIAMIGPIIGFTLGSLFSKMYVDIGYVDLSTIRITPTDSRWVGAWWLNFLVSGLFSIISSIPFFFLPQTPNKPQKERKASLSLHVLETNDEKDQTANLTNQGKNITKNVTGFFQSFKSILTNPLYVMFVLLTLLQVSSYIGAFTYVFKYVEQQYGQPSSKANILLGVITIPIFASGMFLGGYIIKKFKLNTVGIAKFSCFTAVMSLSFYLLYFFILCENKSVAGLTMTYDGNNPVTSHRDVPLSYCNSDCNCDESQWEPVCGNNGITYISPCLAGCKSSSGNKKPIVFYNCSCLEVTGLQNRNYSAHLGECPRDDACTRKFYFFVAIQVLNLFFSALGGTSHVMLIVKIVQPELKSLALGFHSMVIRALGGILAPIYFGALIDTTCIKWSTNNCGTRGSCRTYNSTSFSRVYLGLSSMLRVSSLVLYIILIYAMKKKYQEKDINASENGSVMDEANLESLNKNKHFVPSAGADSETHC

OCT2 = target: T2, OCT2 (Homo sapiens, UniProt O15244); details: read-out: Km of probe substrate, OCT2; from literature; ref [12]; cited from earlier work
T2 sequence (O15244 1-555): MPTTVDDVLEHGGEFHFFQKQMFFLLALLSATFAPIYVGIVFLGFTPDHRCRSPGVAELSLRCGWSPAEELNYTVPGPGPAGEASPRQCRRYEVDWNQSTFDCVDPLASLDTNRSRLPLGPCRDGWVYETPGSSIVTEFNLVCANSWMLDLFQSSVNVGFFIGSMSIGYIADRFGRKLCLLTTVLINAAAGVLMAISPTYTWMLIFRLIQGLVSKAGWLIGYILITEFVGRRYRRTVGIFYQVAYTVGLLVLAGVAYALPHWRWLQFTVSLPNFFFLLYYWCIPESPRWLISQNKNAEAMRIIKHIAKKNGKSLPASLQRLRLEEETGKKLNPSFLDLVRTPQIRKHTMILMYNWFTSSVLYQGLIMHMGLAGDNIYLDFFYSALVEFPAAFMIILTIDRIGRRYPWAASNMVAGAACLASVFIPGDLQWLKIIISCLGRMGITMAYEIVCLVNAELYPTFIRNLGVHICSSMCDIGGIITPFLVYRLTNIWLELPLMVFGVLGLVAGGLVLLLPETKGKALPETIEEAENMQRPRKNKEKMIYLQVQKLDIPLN

[1] = cancer patients, observation, cited from earlier work; for AUC GM Ratio (90% CI) / Cmax GM Ratio (90% CI): cocktail substrate with vs without fedratinib 500 mg QD
Caco-2/TC7 = details: reference compound of the Simcyp permeability input, 7.4:7.4; cited from earlier work
OCT1 = target: T3, OCT1 (Homo sapiens, UniProt O15245); set-up: method as in earlier work; details: from literature; ref [11]; read-out: Km of probe substrate, OCT1; cited from earlier work
T3 construct: expressed in transfected cells; host or cells: CHO^Fi-hOCT1
T3 sequence (O15245 1-554): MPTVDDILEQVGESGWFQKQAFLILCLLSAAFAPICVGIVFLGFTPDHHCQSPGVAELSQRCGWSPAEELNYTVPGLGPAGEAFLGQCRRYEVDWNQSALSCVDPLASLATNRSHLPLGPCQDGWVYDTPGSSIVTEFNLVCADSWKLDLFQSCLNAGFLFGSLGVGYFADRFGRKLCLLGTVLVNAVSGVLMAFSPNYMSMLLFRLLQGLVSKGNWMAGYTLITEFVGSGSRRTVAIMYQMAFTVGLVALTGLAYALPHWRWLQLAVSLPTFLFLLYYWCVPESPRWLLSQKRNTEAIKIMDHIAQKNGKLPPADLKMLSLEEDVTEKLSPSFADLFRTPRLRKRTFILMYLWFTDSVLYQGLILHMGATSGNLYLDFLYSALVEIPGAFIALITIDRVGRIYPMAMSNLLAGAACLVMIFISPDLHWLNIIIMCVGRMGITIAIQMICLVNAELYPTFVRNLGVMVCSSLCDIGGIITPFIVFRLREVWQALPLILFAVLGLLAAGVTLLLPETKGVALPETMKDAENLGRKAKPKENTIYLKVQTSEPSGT

P-gp = P-gp (Homo sapiens, UniProt P08183); details: read-out: Km of probe substrate, P-gp; from literature; ref [16]; cited from earlier work
OATP1B3 = target: T4, OATP1B3 (Homo sapiens, UniProt Q9NPD5); details: cited from earlier work
T4 sequence (Q9NPD5 1-702): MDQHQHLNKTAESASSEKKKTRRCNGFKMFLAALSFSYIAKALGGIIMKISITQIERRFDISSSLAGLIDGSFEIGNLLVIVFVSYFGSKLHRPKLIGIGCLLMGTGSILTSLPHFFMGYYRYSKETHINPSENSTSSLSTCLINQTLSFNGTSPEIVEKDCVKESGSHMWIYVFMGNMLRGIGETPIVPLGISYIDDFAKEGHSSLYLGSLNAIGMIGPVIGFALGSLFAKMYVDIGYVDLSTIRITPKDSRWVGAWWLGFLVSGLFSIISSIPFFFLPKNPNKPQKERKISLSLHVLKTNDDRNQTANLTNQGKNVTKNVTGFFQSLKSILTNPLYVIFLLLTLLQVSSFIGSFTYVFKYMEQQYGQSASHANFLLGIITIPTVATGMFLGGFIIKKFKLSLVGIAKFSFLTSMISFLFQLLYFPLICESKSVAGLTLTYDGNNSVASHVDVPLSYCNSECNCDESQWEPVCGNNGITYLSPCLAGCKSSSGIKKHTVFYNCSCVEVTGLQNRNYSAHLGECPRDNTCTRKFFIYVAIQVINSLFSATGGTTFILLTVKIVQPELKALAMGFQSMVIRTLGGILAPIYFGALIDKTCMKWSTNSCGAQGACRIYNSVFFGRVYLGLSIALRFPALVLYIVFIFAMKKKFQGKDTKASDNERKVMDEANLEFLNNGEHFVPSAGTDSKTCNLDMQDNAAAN

[2] = cocktail substrate + fedratinib 500 mg QD, GM
[3] = cocktail substrate + fedratinib 500 mg QD, Mean (SD)
[4] = cocktail substrate alone, Mean (SD)

Sequence of P-gp (P08183 whole entry): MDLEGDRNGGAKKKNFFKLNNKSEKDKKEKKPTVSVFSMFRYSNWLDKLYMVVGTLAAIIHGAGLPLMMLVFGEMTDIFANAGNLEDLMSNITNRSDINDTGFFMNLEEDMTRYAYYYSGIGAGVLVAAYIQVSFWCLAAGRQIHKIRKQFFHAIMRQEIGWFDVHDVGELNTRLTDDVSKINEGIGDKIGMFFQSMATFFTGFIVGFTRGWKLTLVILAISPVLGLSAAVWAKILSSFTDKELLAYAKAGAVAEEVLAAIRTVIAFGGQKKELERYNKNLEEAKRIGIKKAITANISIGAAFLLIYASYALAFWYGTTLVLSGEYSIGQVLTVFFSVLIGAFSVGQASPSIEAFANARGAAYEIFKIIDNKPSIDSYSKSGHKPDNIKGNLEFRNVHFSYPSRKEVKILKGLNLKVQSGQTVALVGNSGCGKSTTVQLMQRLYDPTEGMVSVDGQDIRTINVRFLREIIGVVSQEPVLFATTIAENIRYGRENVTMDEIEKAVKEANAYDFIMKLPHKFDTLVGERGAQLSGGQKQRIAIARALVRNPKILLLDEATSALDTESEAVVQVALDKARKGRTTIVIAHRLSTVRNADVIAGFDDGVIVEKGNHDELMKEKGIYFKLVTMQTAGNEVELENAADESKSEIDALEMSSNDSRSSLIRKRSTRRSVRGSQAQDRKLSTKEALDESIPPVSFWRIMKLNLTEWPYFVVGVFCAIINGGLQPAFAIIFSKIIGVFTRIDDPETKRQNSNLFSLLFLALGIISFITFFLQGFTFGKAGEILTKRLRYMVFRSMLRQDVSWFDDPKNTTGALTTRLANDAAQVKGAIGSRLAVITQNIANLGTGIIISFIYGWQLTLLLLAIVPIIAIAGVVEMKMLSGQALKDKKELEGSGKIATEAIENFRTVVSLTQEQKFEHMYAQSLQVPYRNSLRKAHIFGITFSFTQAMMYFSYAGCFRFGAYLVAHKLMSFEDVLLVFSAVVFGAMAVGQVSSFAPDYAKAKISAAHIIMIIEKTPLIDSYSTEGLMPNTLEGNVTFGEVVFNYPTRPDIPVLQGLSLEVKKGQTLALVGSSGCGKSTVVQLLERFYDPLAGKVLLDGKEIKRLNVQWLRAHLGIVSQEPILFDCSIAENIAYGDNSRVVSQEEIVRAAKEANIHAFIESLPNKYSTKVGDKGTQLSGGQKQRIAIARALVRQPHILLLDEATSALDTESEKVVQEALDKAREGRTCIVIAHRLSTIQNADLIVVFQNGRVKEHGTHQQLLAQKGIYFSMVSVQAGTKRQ

| Molecule | AUC (AUCinf) [1, 2] | Cmax [1, 2] | AUC (AUCinf) [1, 3] | Cmax [1, 3] | AUC (AUCinf) ([1]; cocktail substrate alone, GM) | AUC (AUCinf) [1, 4] | AUC GM Ratio (90% CI) [1] | Cmax GM Ratio (90% CI) [1] | also measured |
| --- | --- | --- | --- | --- | --- | --- | --- | --- | --- |
| C[C@]12CC[C@@H]3c4ccc(O)cc4CC[C@H]3[C@@H]1CC[C@@H]2O[C@@H]1O[C@H](C(=O)O)[C@@H](O)[C@H](O)[C@H]1O [Estradiol-17β-glucuronide] | – | – | – | – | – | – | – | – | Km (OATP1B1): 8.17 µM |
| CN(C)C(=N)N=C(N)N [Metformin] | – | – | – | – | – | – | – | – | Km (OCT2): 235 µM |
| COCCc1ccc(OCC(O)CNC(C)C)cc1 (stereo not drawn) [Metoprolol] | 1180 ng·h/mL | 199 ng/mL | 1460 (938) ng/mL·h | 221 (106) ng/mL | 731 ng·h/mL | 880 (545) ng/mL·h | 1.77 (1.27–2.47) | 1.60 (1.25–2.05) | AUC GM Ratio (90% CI) ([1]; listed as metoprolol): 1.77; Cmax GM Ratio (90% CI) ([1]; listed as metoprolol): 1.60 |
| Cc1ncc2n1-c1ccc(Cl)cc1C(c1ccccc1F)=NC2 [Midazolam] | 148 ng·h/mL | 24.2 ng/mL | 152 (38.6) ng/mL·h | 25.9 (8.75) ng/mL | 41.5 ng·h/mL | 52.2 (37.9) ng/mL·h | 3.84 (2.62–5.63) | 1.82 (1.49–2.21) | Cmax ([1]; cocktail substrate alone (midazolam 2 mg, omeprazole 20 mg, metoprolol 100 mg once), GM): 13.4 ng/mL; Cmax ([1]; cocktail substrate alone (midazolam 2 mg, omeprazole 20 mg, metoprolol 100 mg once), Mean (SD)): 14.8 (7.56) ng/mL |
| COc1ccc2[nH]c([S+]([O-])Cc3ncc(C)c(OC)c3C)nc2c1 (stereo not drawn) [Omeprazole] | 4690 ng·h/mL | 537 ng/mL | 5950 (3560) ng/mL·h | 615 (286) ng/mL | 1590 ng·h/mL | 2210 (1740) ng/mL·h | 2.82 (2.26–3.53) | 1.12 (0.81–1.53) | AUC GM Ratio (90% CI) ([1]; listed as omeprazole): 2.82; Cmax GM Ratio (90% CI) ([1]; listed as omeprazole): 1.12 |
| CC(C)NCC(O)COc1cccc2ccccc12 (stereo not drawn) [Propranolol] | – | – | – | – | – | – | – | – | Reference Compound Value (PCaco-2) (Caco-2/TC7): 43.000 10E-06 cm/s |
| CC[N+](CC)(CC)CC [TEA] | – | – | – | – | – | – | – | – | Km (OCT1): 296 µM |
| C[C@H]1O[C@@H](O[C@H]2[C@@H](O)C[C@H](O[C@H]3[C@@H](O)C[C@H](O[C@H]4CC[C@@]5(C)[C@H](CC[C@@H]6[C@@H]5C[C@@H](O)[C@]5(C)[C@@H](C7=CC(=O)OC7)CC[C@]65O)C4)O[C@@H]3C)O[C@@H]2C)C[C@H](O)[C@@H]1O [digoxin] | – | – | – | – | – | – | – | – | Km (P-gp): 385 µM |
| CCK8 | – | – | – | – | – | – | – | – | Km (OATP1B3): 3.8 µM |
